The values below come from US10829778B2, “Plants having increased tolerance to herbicides” (BASF SE, priority 2013, dated 2020).

Molecules are shown by their SMILES.

Holding throughout (assay type): biochemical
For assay [1], the target named is T1, Hordeum HPPD (SEQ ID NO:2) (Hordeum vulgare, UniProt O48604, A164G/R146V/R147D/R148G).
T1 construct: subcloned into a modified pET24D (Novagen) expression vector resulting in N-terminally His-tagged expression constructs; His tag (N); made in house; host or cells: E. coli BL21 (DE3)
T1 sequence (O48604 whole entry R146V/R147D/R148G/A164G): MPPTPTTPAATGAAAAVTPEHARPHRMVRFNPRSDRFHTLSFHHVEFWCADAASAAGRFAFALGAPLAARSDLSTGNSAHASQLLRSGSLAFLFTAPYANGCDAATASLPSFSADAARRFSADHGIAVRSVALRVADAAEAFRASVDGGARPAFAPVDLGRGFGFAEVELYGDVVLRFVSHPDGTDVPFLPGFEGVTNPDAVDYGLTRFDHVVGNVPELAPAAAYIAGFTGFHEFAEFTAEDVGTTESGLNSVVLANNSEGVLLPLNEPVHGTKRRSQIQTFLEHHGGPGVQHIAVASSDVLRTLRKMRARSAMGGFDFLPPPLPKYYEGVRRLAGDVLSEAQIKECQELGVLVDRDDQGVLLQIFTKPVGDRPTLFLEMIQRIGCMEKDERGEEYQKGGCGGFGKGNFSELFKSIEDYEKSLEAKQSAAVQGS
Put plainly: HPPD activity assay (HGA by HPLC), wildtype enzyme. How it is done: (§1) HPPD produces homogentisic acid and CO2 from 4-hydroxyphenylpyruvate (4-HPP) and O2. The activity assay for HPPD is based on the analysis of homogentisic acid by reversed phase HPLC.
(§2) The assay mixture can contain 150 mM potassium phosphate buffer pH 7.0, 50 mM L-ascorbic acid, 100 μM Catalase (Sigma-Aldrich), 1 μM FeSO4 and 0.2 units of purified HPPD enzyme in a total volume of 505 μl. 1 unit is defined as the amount of enzyme that is required to produce 1 nmol of HGA per minute at 20° C.
(§3) After a preincubation of 30 min the reaction is started by adding 4-HPP to a final concentration of 0.05 mM. The reaction is allowed to proceed for 45 min at room temperature. The reaction is stopped by the addition of 50 μl of 4.5 M phosphoric acid. The sample is filtered using a […] pore size PVDF filtration device.
(§4) 5 μl of the cleared sample is analyzed on an UPLC HSS T3 column (particle size 1.8 μm, dimensions 2.1×50 mm; Waters) by isocratic elution using 90% 20 mM NaH2PO4 pH 2.2, 10% methanol (v/v).
(§5) HGA is detected electrochemically at 750 mV (mode: DC; polarity: positive) and quantified by integrating peak areas (Empower software; Waters).
(§6) Inhibitors are dissolved in DMSO (dimethylsulfoxide) to a concentration of 0.5 mM. From this stock solution serial five-fold dilutions are prepared in DMSO, which are used in the assay. The respective inhibitor solution accounts for 1% of the assay volume. […] Activities are normalized by setting the uninhibited enzyme activity to 100%. IC50 values are calculated using non-linear regression.
Using methods which are described in the above examples or well known in the art, purified, recombinant wildtype HPPD enzymes are characterized with respect to their kinetic properties and sensitivity towards HPPD inhibiting herbicides. Apparent michaelis constants (Km) and maximal reaction velocities (Vmax) are calculated by non-linear regression with the software GraphPad Prism 5 (GraphPad Software, La Jolla, USA) using a substrate inhibition model. […] Weighted means (by standard error) of Km and IC50 values are calculated from at least three independent experiments.
Field performance of the HPPD enzyme, which is used as a herbicide tolerance trait may depend not only on its lack of sensitivity towards HPPD inhibiting herbicides but also on its activity. To assess the potential performance of a herbicide tolerance trait a tolerance index (TI) is calculated using the following formula: […]
Easy comparison and ranking of each trait is enabled by normalizing tolerance indexes on Arabidopsis wild-type HPPD.

For assay [2], the target named is T2, Arabidopsis HPPD (SEQ ID: 53) M335H, P336A, E363Q (Arabidopsis thaliana, UniProt P93836, E363Q/M335H/P336A).
T2 construct: PCR-based site directed mutagenesis of pEXP5-NT/TOPO®-AtHPPD; His6 (N); made in house; host or cells: E. coli BL21 (DE3)
T2 sequence (P93836 whole entry M335H/P336A/E363Q): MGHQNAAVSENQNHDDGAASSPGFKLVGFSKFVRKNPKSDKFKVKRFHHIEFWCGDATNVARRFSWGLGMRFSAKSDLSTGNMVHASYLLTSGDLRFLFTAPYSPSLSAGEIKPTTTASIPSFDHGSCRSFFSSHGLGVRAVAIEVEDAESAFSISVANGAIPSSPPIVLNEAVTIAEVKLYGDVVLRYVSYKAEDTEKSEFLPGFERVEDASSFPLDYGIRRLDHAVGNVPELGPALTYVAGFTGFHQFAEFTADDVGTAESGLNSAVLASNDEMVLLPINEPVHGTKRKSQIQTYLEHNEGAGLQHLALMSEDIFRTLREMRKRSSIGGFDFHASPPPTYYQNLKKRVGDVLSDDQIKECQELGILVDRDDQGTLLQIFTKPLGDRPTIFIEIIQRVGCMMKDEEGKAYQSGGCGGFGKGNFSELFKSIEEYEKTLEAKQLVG
Kind of assay: HPPD activity assay, mutant enzyme. The settings on record: Table 15, normalized to Arabidopsis wild-type. How it is done:
as §1, §2, §3, §4, §5, §6
(§7) Purified, mutant HPPD enzymes are obtained by the methods described above. Dose response and kinetic measurements are carried out using the described HPPD activity assay. Apparent michaelis constants (Km) and maximal reaction velocities (Vmax) are calculated by non-linear regression with the software GraphPad Prism 5 (GraphPad Software, La Jolla, USA) using a substrate inhibition model. […] Weighted means (by standard error) of Km and IC50 values are calculated from at least three independent experiments.
(§8) Field performance of the optimized HPPD enzyme, which is used as a herbicide tolerance trait may depend not only on its lack of sensitivity towards HPPD inhibiting herbicides but also on its activity. To assess the potential performance of a herbicide tolerance trait a tolerance index (TI) is calculated using the following formula: […]
(§9) Easy comparison and ranking of each trait is enabled by normalizing tolerance indexes on Arabidopsis or Hordeum wild-type HPPD.

The target of a further assay is T3, HvHPPD L320H (SEQ ID: 2) (Hordeum vulgare, UniProt O48604, A164G/L320H/R146V/R147D/R148G).
T3 construct: His tag (N); made in house; host or cells: E. coli BL21 (DE3)
T3 sequence (O48604 whole entry R146V/R147D/R148G/A164G/L320H): as the sequence (O48604 whole entry R146V/R147D/R148G/A164G) above, with L320H counted along it
Put plainly: HPPD activity assay, mutant enzyme. The settings on record: Table 16, normalized to Hordeum wild-type. As to the method: as §1, §2, §3, §4, §5, §6, §7, §8, §9

The target of assay [3] is T4, Arabidopsis HPPD (SEQ ID: 53) F381L (Arabidopsis thaliana, UniProt P93836, F381L).
T4 construct: PCR-based site directed mutagenesis of pEXP5-NT/TOPO®-AtHPPD; His6 (N); made in house; host or cells: E. coli BL21 (DE3)
T4 sequence (P93836 whole entry F381L): as the sequence (P93836 whole entry M335H/P336A/E363Q) above, with H335M, A336P, Q363E, F381L counted along it
Kind of assay: HPPD activity assay, mutant enzyme. Particulars: Table 15, normalized to Arabidopsis wild-type. As to the method: as §1, §2, §3, §4, §5, §6, §7, §8, §9

Assay [4] has as its target T5, Hordeum HPPD (SEQ ID: 2) F404L (Hordeum vulgare, UniProt O48604, A164G/F404L/R146V/R147D/R148G).
T5 construct: His tag (N); made in house; host or cells: E. coli BL21 (DE3)
Kind of assay: HPPD activity assay, mutant enzyme. Particulars: Table 16, normalized to Hordeum wild-type. As to the method: as §1, §2, §3, §4, §5, §6, §7, §8, §9

The next assay concerns the target T6, HvHPPD G407C (SEQ ID: 2) (Hordeum vulgare, UniProt O48604, A164G/G407C/R146V/R147D/R148G).
T6 construct: His tag (N); made in house; host or cells: E. coli BL21 (DE3)
Kind of assay: HPPD activity assay, mutant enzyme. The settings on record: Table 16, normalized to Hordeum wild-type. As to the method: as §1, §2, §3, §4, §5, §6, §7, §8, §9

The target in assay [5] is T7, Arabidopsis HPPD (SEQ ID: 53) M335H, P336A (Arabidopsis thaliana, UniProt P93836, M335H/P336A).
T7 construct: PCR-based site directed mutagenesis of pEXP5-NT/TOPO®-AtHPPD; His6 (N); made in house; host or cells: E. coli BL21 (DE3)
T7 sequence (P93836 whole entry M335H/P336A): as the sequence (P93836 whole entry M335H/P336A/E363Q) above, with Q363E counted along it
Put plainly: HPPD activity assay, mutant enzyme. Particulars: Table 15, normalized to Arabidopsis wild-type. As to the method:
as §1, §2, §3, §4, §5, §6, §7, §8, §9

The target of assay [6] is T8, HvHPPD L353M, P321R, L320Q (SEQ ID: 2) (Hordeum vulgare, UniProt O48604, L320Q/L353M/P321R).
T8 construct: His tag (N); made in house; host or cells: E. coli BL21 (DE3)
T8 sequence (O48604 whole entry R146V/R147D/R148G/A164G/L320Q/P321R/L353M): as the sequence (O48604 whole entry R146V/R147D/R148G/A164G) above, with L320Q, P321R, L353M counted along it
Kind of assay: HPPD activity assay, mutant enzyme. Particulars: Table 16, normalized to Hordeum wild-type. As to the method: as §1, §2, §3, §4, §5, §6, §7, §8, §9

For assay [7], the target named is T9, Hordeum HPPD (SEQ ID: 2) L250M (Hordeum vulgare, UniProt O48604, A164G/L250M/R146V/R147D/R148G).
T9 construct: His tag (N); made in house; host or cells: E. coli BL21 (DE3)
T9 sequence (O48604 whole entry R146V/R147D/R148G/A164G/L250M): as the sequence (O48604 whole entry R146V/R147D/R148G/A164G) above, with L250M counted along it
Kind of assay: HPPD activity assay, mutant enzyme. Particulars: Table 16, normalized to Hordeum wild-type. As to the method:
as §1, §2, §3, §4, §5, §6, §7, §8, §9

The target of assay [8] is T10, Hordeum HPPD (SEQ ID: 2) R309K (Hordeum vulgare, UniProt O48604, A164G/R146V/R147D/R148G/R309K).
T10 construct: His tag (N); made in house; host or cells: E. coli BL21 (DE3)
T10 sequence (O48604 whole entry R146V/R147D/R148G/A164G/R309K): as the sequence (O48604 whole entry R146V/R147D/R148G/A164G) above, with R309K counted along it
Put plainly: HPPD activity assay, mutant enzyme. Particulars: Table 16, normalized to Hordeum wild-type. As to the method: as §1, §2, §3, §4, §5, §6, §7, §8, §9

The target in assay [9] is T11, Hordeum HPPD (SEQ ID: 2) I416V (Hordeum vulgare, UniProt O48604, A164G/I416V/R146V/R147D/R148G).
T11 construct: His tag (N); made in house; host or cells: E. coli BL21 (DE3)
T11 sequence (O48604 whole entry R146V/R147D/R148G/A164G/I416V): as the sequence (O48604 whole entry R146V/R147D/R148G/A164G) above, with I416V counted along it
Put plainly: HPPD activity assay, mutant enzyme. The settings on record: Table 16, normalized to Hordeum wild-type. How it is done: as §1, §2, §3, §4, §5, §6, §7, §8, §9

In assay [10] the target is T12, HvHPPD L320H, P321A (SEQ ID: 2) (Hordeum vulgare, UniProt O48604, L320H/P321A).
T12 construct: His tag (N); made in house; host or cells: E. coli BL21 (DE3)
T12 sequence (O48604 whole entry R146V/R147D/R148G/A164G/L320H/P321A): as the sequence (O48604 whole entry R146V/R147D/R148G/A164G) above, with L320H, P321A counted along it
Put plainly: HPPD activity assay, mutant enzyme. The settings on record: Table 16, normalized to Hordeum wild-type. How it is done: as §1, §2, §3, §4, §5, §6, §7, §8, §9

Assay [11] concerns the target T13, Arabidopsis HPPD (SEQ ID: 53) F381I (Arabidopsis thaliana, UniProt P93836, F381I).
T13 construct: PCR-based site directed mutagenesis of pEXP5-NT/TOPO®-AtHPPD; His6 (N); made in house; host or cells: E. coli BL21 (DE3)
Put plainly: HPPD activity assay, mutant enzyme. Particulars: Table 15, normalized to Arabidopsis wild-type. As to the method:
as §1, §2, §3, §4, §5, §6, §7, §8, §9

T5 sequence (O48604 whole entry R146V/R147D/R148G/A164G/F404L): as the sequence (O48604 whole entry R146V/R147D/R148G/A164G) above, with F404L counted along it
T6 sequence (O48604 whole entry R146V/R147D/R148G/A164G/G407C): as the sequence (O48604 whole entry R146V/R147D/R148G/A164G) above, with G407C counted along it
T13 sequence (P93836 whole entry F381I): as the sequence (P93836 whole entry M335H/P336A/E363Q) above, with H335M, A336P, Q363E, F381I counted along it

In the case of `Cc1nonc1NC(=O)c1ccc(S(C)(=O)=O)c(S(C)(=O)=O)c1C` [Inhibitor 1, 2-methyl-N-(4-methyl-1,2,5-oxadiazol-3-yl)-3,4-bis(methylsulfonyl)benzamide], in assay [1], the Ki – broadly, a dissociation constant, usually derived from enzyme kinetics or from competition with a known ligand – was found to be 5.6 nM. Besides, the “Normalized tolerance index TI Inhibitor 1” value amounted to 1.5 in assay [1] (Table 12, normalized to Arabidopsis HPPD, Hordeum); 1 in assay [1] (Table 16, Hordeum HPPD Wildtype (reference)); 6.7 in assay [2]; 4.4 on HvHPPD L320H (SEQ ID: 2); 35.2 in assay [3]; 4.6 in assay [4]. Also, the “Normalized tolerance index TI Inhibitor 1” value is given as 5 at HvHPPD G407C (SEQ ID: 2); 2.4 in assay [5]; 12.6 in [6]; 2.1 in [7]; 1.6 in assay [8]; 1.7 in [9]. The “Normalized tolerance index TI Inhibitor 1” value in [10] amounted to 5.3; in [11], 37. Besides, in assay [1] (not normalized, Table 11, Hordeum enzyme), the “TI (tolerance index)” value was 2.5E−3.
